The test system of this assay is 323965-272-R-J2-PDC complex spheroid viability. Put plainly: Anticancer human tumor 323965-272-R-J2-PDC patient-derived pancreatic carcinoma cell line growth inhibition [CLK]. Conditions: for viability, T/C: stronger effect = lower value. Summed up:
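Multi-cell-type spheroids combined patient-derived tumor cells with HUVEC endothelial cells and human mesenchymal stem cells. Paired agents were dosed in half-log steps down from about clinical Cmax, or from 10 microM where Cmax was unknown.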

[1] abbreviates: curve of first compound, second compound 0.0316 µM.
The mark [2] stands for this setting: curve of first compound, second compound 0.1 µM.
Where [3] appears, read: curve of first compound, second compound 0.316 µM.
The mark [4] stands for this setting: curve of first compound, second compound 1 µM.
The mark [5] stands for this setting: curve of first compound, second compound 3.16 µM.
The mark [6] stands for this setting: curve of first compound, second compound 10 µM.

Where “and” joins values, the source holds several entries; their conditions need not be identical. Equal entries are not always repeated.
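Also: spheroids exposed to agents for seven days before readout.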
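For viability, T/C in this document: percent of DMSO vehicle control wells so 100% = untreated growth.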

For the compound `CC(Nc1ccc2c(c1)OCCn1cc(N3C(=O)OCC3C(F)F)nc1-2)C(N)=O` (stereo not given) + CN1CCN(c2cc(C(=O)Nc3cc4cc(-c5cnn(C)c5)ccc4cn3)ccn2)CC1, the IC50 (commonly the concentration at which inhibition is half-maximal) is, setting by setting: under setting [1], 7280 nM; under setting [2], 327 nM; under setting [3], < 31.6 nM; under setting [4], < 31.6 nM; under setting [5], < 31.6 nM; under setting [6], < 31.6 nM. For the same compound, the viability, T/C (usually the ratio of treated to control) was 91.5% (second compound 0.0316 µM, first compound 0.0316 µM); 78.7% (second compound 0.0316 µM, first compound 0.1 µM); 79% (second compound 0.0316 µM, first compound 0.316 µM); 65.6% (second compound 0.0316 µM, first compound 1 µM); 55.3% (second compound 0.0316 µM, first compound 3.16 µM); 48% (second compound 0.0316 µM, first compound 10 µM). Besides, the viability, T/C is 67.6% (second compound 0.1 µM, first compound 0.0316 µM); 58.3% (second compound 0.1 µM, first compound 0.1 µM); 50% (second compound 0.1 µM, first compound 0.316 µM); 45.1% (second compound 0.1 µM, first compound 1 µM); 37.5% (second compound 0.1 µM, first compound 3.16 µM); 36.7% (second compound 0.1 µM, first compound 10 µM). Further, the viability, T/C reads like this: (second compound 0.316 µM, first compound 0.0316 µM) 27.5%; (second compound 0.316 µM, first compound 0.1 µM) 23.4%; (second compound 0.316 µM, first compound 0.316 µM) 18%; (second compound 0.316 µM, first compound 1 µM) 19.1%; (second compound 0.316 µM, first compound 3.16 µM) 19.2%; (second compound 0.316 µM, first compound 10 µM) 14.3%. The viability, T/C reads like this: (second compound 1 µM, first compound 0.0316 µM) 3.27%; (second compound 1 µM, first compound 0.1 µM) 4.12%; (second compound 1 µM, first compound 0.316 µM) 3.78%; (second compound 1 µM, first compound 1 µM) 2.98%; (second compound 1 µM, first compound 3.16 µM) 2.66%; (second compound 1 µM, first compound 10 µM) 2.88%. Further, the viability, T/C (second compound 3.16 µM, first compound 0.0316 µM) is 3.35%; the viability, T/C (second compound 3.16 µM, first compound 0.1 µM) was 3.08%; the viability, T/C (second compound 3.16 µM, first compound 0.316 µM) was 2.69%; the viability, T/C (second compound 3.16 µM, first compound 1 µM) was 2.63%; the viability, T/C (second compound 3.16 µM, first compound 3.16 µM) was 2.26%; the viability, T/C (second compound 3.16 µM, first compound 10 µM) was 2.14%. For the same compound, the viability, T/C is 2.98% (second compound 10 µM, first compound 0.0316 µM); 3.37% (second compound 10 µM, first compound 0.1 µM); 3.23% (second compound 10 µM, first compound 0.316 µM); 2.97% (second compound 10 µM, first compound 1 µM); 3.87% (second compound 10 µM, first compound 3.16 µM); 2.96% (second compound 10 µM, first compound 10 µM).

With `Cn1ncnc1[C@H]1c2n[nH]c(=O)c3cc(F)cc(c23)N[C@@H]1c1ccc(F)cc1`, the viability, T/C is 108% and 106% (compound 0.000316 µM); 108% and 97.8% (compound 0.001 µM); 101% and 105% (compound 0.00316 µM); 104% and 99.3% (compound 0.01 µM); 114% and 94.7% (compound 0.0316 µM); 83.6% and 74.6% (compound 0.1 µM). Besides, the IC50 (curve of compound) is > 100 nM.

`CC(C)CC(NC(=O)C(Cc1ccccc1)NC(=O)c1cnccn1)B(O)O` (stereo not given) + CNC(=O)c1ccc(Nc2nc(OC3CCCC3)c3c(-c4ccc5nc(C)oc5c4)c[nH]c3n2)c(OC)c1: the half-maximal inhibitory concentration (IC50) runs as follows: under setting [1], 3.5 nM; under setting [2], 3.84 nM; under setting [3], 3.11 nM; under setting [4], 1.72 nM; under setting [5], < 0.949 nM; under setting [6], 1.02 nM. Further, the viability, T/C by setting is: (second compound 0.0316 µM, first compound 0.000949 µM) 144%; (second compound 0.0316 µM, first compound 0.003 µM) 57.1%; (second compound 0.0316 µM, first compound 0.00949 µM) 3.74%; (second compound 0.0316 µM, first compound 0.03 µM) 0.63%; (second compound 0.0316 µM, first compound 0.0949 µM) 0.4%; (second compound 0.0316 µM, first compound 0.3 µM) 1.5%. For the same compound, the viability, T/C reads like this: (second compound 0.1 µM, first compound 0.000949 µM) 97.1%; (second compound 0.1 µM, first compound 0.003 µM) 62.7%; (second compound 0.1 µM, first compound 0.00949 µM) 3.57%; (second compound 0.1 µM, first compound 0.03 µM) 0.66%; (second compound 0.1 µM, first compound 0.0949 µM) 0.72%; (second compound 0.1 µM, first compound 0.3 µM) 3.02%. Further, the viability, T/C was 77.6% (second compound 0.316 µM, first compound 0.000949 µM); 51.5% (second compound 0.316 µM, first compound 0.003 µM); 3.56% (second compound 0.316 µM, first compound 0.00949 µM); 0.65% (second compound 0.316 µM, first compound 0.03 µM); 0.61% (second compound 0.316 µM, first compound 0.0949 µM); 0.43% (second compound 0.316 µM, first compound 0.3 µM). Also, the viability, T/C (second compound 1 µM, first compound 0.000949 µM) is 62.9%; the viability, T/C (second compound 1 µM, first compound 0.003 µM) was 38%; the viability, T/C (second compound 1 µM, first compound 0.00949 µM) is 3.86%; the viability, T/C (second compound 1 µM, first compound 0.03 µM) was 0.86%; the viability, T/C (second compound 1 µM, first compound 0.0949 µM) is 1.19%; the viability, T/C (second compound 1 µM, first compound 0.3 µM) is 1.58%. The viability, T/C (second compound 3.16 µM, first compound 0.000949 µM) is 48.7%; the viability, T/C (second compound 3.16 µM, first compound 0.003 µM) was 28.7%; the viability, T/C (second compound 3.16 µM, first compound 0.00949 µM) was 1.87%; the viability, T/C (second compound 3.16 µM, first compound 0.03 µM) is 0.28%; the viability, T/C (second compound 3.16 µM, first compound 0.0949 µM) was 0.73%; the viability, T/C (second compound 3.16 µM, first compound 0.3 µM) was 1.18%. For the same compound, the viability, T/C runs as follows: (second compound 10 µM, first compound 0.000949 µM) 51.6%; (second compound 10 µM, first compound 0.003 µM) 24.5%; (second compound 10 µM, first compound 0.00949 µM) 1.13%; (second compound 10 µM, first compound 0.03 µM) 0.33%; (second compound 10 µM, first compound 0.0949 µM) 0.86%; (second compound 10 µM, first compound 0.3 µM) 2.07%.

For the compound `CCN1CCN(Cc2ccc(Nc3ncc(F)c(-c4cc(F)c5nc(C)n(C(C)C)c5c4)n3)nc2)CC1`, the viability, T/C is, setting by setting: (compound 0.00316 µM) 91.3% and 105%; (compound 0.01 µM) 95.6% and 95%; (compound 0.0316 µM) 81.2% and 68.3%; (compound 0.1 µM) 67.5% and 69.9%; (compound 0.316 µM) 73.3% and 68.3%; (compound 1 µM) 72.3% and 68.7%. In addition, the IC50 (curve of compound) is > 1000 nM.

Turning to `CC1COCCN1c1cc(C2(S(C)(=N)=O)CC2)nc(-c2ccnc3[nH]ccc23)n1` (stereo not given), the viability, T/C by setting is: (compound 0.0316 µM) 103% and 106%; (compound 0.1 µM) 99.9% and 91.9%; (compound 0.316 µM) 90.5% and 90.1%; (compound 1 µM) 70.1% and 62.4%; (compound 3.16 µM) 37.1% and 40.2%; (compound 10 µM) 31.6% and 31%. Where the note is “curve of compound”, the IC50 is 2070 nM and 1960 nM.

The values above are taken from PubChem BioAssay AID2060619 (Molecular Pharmacology Branch, DTP, NCI, 2025).
